Results: PubChem BioAssay AID2080 (NMMLSC, 2009)
The source made the active and inactive calls. No rule for the calls is given here.

target: Bcl-2-related protein A1 (Homo sapiens) (UniProt Q16548); test: Bfl-1/Bim complex disruptors – biochemical, multiplexed, bead-based flow cytometry, HTS hits, confirmation (AID 2080); settings: Bim peptide-Bfl-1 binding
Sequence (Q16548 whole entry, looked up): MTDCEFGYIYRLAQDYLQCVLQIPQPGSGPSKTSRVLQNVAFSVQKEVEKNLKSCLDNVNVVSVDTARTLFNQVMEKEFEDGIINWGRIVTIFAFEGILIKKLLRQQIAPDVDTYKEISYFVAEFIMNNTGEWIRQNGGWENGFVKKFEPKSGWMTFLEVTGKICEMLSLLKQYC

Q: With `COc1ccc(N2C(=O)C(Cl)=C(NC3C(=O)N(c4ccccc4)N(C)C3C)C2=O)cc1` (stereo not drawn) as the compound, how does the EC50 read?
A: 1240 nM

same assay, conditions: Bim peptide-Bfl-1 binding, at 100 µM (top of the series)

Q: Which inhibition of binding does the source give for `CCN(CC)C(=O)COC(=O)c1cc(-c2ccco2)nc2ccccc12` here?
A: inactive

Q: `Cc1ccc(-c2nc3c(c(=O)[nH]c(=O)n3Cc3ccccc3)n2C)o1` was tested. Which inhibition of binding did it give?
A: inactive

Q: How did the inhibition of binding turn out when `O=C1NC(=O)C2(Cc3c(nc4ccccn4c3=O)N3CCCCCC32)C(=O)N1Cc1ccccc1` (stereo not drawn) was run?
A: inactive

Q: `O=C(/C=C/c1ccc(-c2ccccc2[N+](=O)[O-])o1)c1ccccc1` was tested. Which inhibition of binding did it give?
A: inactive

Q: Which inhibition of binding does the source give for `CNC1CCC(Br)CC(C(=O)/C=C/c2cccc(OC)c2OC)C1=O` (stereo not drawn) here?
A: inactive

Q: For `CCOc1ccccc1CNc1ccc(O)cc1`, which inhibition of binding is on record?
A: inactive

Q: With `Cc1ccc(C=NNC(=O)CSc2nnc(-c3ccc(Cl)cc3)n2-c2ccccc2)o1` as the compound, how does the inhibition of binding read?
A: inactive

Q: For `Cc1ccc(-c2cc(C(=O)Nc3nccs3)c3ccccc3n2)o1`, which inhibition of binding is on record?
A: inactive

Q: `O=C1c2ccccc2C(=O)N1CN(C(=O)COc1ccc(Cl)cc1Cl)c1cccc(F)c1` was tested. Which inhibition of binding did it give?
A: inactive

Q: Which inhibition of binding does the source give for `CCN(CC)c1ccc(NC(=O)COc2ccccc2C)cc1S(=O)(=O)Nc1ccccc1OC` here?
A: inactive

Q: With `O=c1c2c(n3nnnc3n1Cc1ccccc1)-c1ccccc1CC21CCCC1` as the compound, how does the inhibition of binding read?
A: inactive

Q: With `COc1cc(CNc2ccc3[nH]c(=O)[nH]c3c2)cc(Br)c1OCC(=O)NC(C)(C)C` as the compound, how does the inhibition of binding read?
A: inactive
